From patent US8263601B2, “Deuterium substituted xanthine derivatives” (CoNCERT Pharmaceuticals, Inc., priority 2009, dated 2012) come the findings set out here.

Series [1] is described as follows: Pharmacokinetic study of pentoxifylline and Compound 435(S) in chimps after intravenous dosing (Example 38). It counts as in vivo. Particulars: for AUC(0-inf): IV infusion 75 mg each of pentoxifylline and 435(S) over 10 minutes, species named in label measured in plasma; for % Difference in AUC0-∞ Female (deuterated vs nondeuterated species) / % Difference in AUC0-∞ Male (deuterated vs nondeuterated species): intravenous. As for the experimental part:
Pentoxifylline and Compound 435(S) were separately dissolved in warm (65° C.) saline at a concentration at 10 mg/mL. A 1:1 mixture of the two compounds was then prepared containing a final concentration of 5 mg/mL of each compound and the mixture was then sterile filtered through a 0.2-μm filter.
Two chimps (one male and one female) were used in each of the oral and intravenous studies. Animals were fasted overnight prior to administration of compounds. All animals were sedated with ketamine (approximately 10 mg/kg) and/or telazol (approximately 5 mg/kg) prior to dosing. Intravenous administration was achieved by IV infusion of 75 mg of each compound (15 mL total dosing solution) over 10 minutes. Oral administration was achieved by oral gavage of a single 75 mg dose of each compound (15 mL total dosing solution). Blood samples (6 mL) were collected from the dosed chimps at various times prior to and after dosing. For intravenous administrations blood samples were collected at 0 min (preinfusion), 5 min, 9.5 min (immediately before the end of the infusion), then 6, 15, 30 and 45 min, and 1, 2, 4, 6, 8, 10 and 12 hr after the infusion is stopped. For oral administrations, blood samples were collected at 0 min (predose), 15 and 30 min, and 1, 1.5, 2, 4, 6, 8, 10 and 12 hr postdose.
Blood samples were placed in tubes containing sodium heparin, mixed and stored on ice until centrifuged. Within 30 minutes of collection, plasma was isolated by centrifuging the blood samples and removing an aliquot (200 μL) of the resulting plasma. Each 200-μL aliquot of plasma was mixed with 400 μL acetonitrile and stored at −70° C. until further analysis by LC-MS/MS using an Applied Bio-systems API 4000 mass spectrometer.
The analysis of all samples by LC-MS/MS was performed as described above for the rat plasma samples in Example 37.

Series [2] can be described thus: Pharmacokinetic study of 435(S) and other representative compounds in chimps after oral dosing (Example 40). Type of series: in vivo. The settings on record: species named in label measured in plasma. As for the experimental part:
435(S) and representative compounds 121(S), 137(S), 421(S) and 437(S) were separately dissolved in warm (65° C.) water at a concentration [[of 10 mg/mL]]. The same protocol described for Example 39 was then followed for each representative compound.

Series [3] can be described thus: Compound stability in human liver microsomes (Example 36). It counts as in vitro ADME. Particulars: 30 minutes. As for the experimental part: Example 36 is similar to Example 35 in design, except that human liver microsomes were used instead of rat whole blood to study the metabolism of the compounds.
Human liver microsomes (20 mg/mL) were obtained from Xenotech, LLC (Lenexa, Kans.). β-nicotinamide adenine dinucleotide phosphate, reduced form (NADPH), magnesium chloride (MgCl2), and dimethyl sulfoxide (DMSO) were purchased from Sigma-Aldrich.
Stock solutions containing 7.5 mM of test compounds (pentoxifylline, (S)-M1 metabolite, (R)-M1 metabolite, Compound 409, Compound 435(S), and Compound 435(R)) were prepared in DMSO. The 7.5-mM stock solutions were diluted to 250 μM in acetonitrile (ACN). The human liver microsomes were diluted to 2.5 mg/mL in 0.1 M potassium phosphate buffer, pH 7.4, containing 3 mM MgCl2. The diluted microsomes were added to wells of a 96-well deep-well polypropylene plate in triplicate. 10 μL of the 250 μM test compound was added to the microsomes and the mixture was pre-warmed to 37° C. for 10 minutes. Reactions were initiated by addition of pre-warmed NADPH solution. The final reaction volume was 0.5 mL and contained 2.0 mg/mL human liver microsomes, 5 μM test compound, and 2 mM NADPH in 0.1M potassium phosphate buffer, pH 7.4, and 3 mM MgCl2. The reaction mixtures were incubated at 37° C., and 50-μL aliquots were removed at 0, 5, 10, 20, and 30 minutes and added to shallow-well 96-well plates which contained 50 μL of ice-cold acetonitrile with internal standard to stop the reactions. The plates were stored at 4° C. for 20 minutes after which 100 μL of water was added to the wells of the plate before centrifugation to pellet precipitated proteins. Supernatants were transferred to another 96-well plate and analyzed for the amount of the administered compound and its specific metabolite (listed in Table 11 above) by LC-MS/MS using an Applied Bio-systems API 4000 mass spectrometer.
The results of this study are depicted in FIGS. 4 and 5. […]

Series [4] is described as follows: Stability of compounds in rat whole blood (Example 35). It counts as in vitro ADME. The settings on record: 5 μM, 37° C., 2 hours, FIG. 3. As for the experimental part: This study was performed to evaluate the stability of the title compounds in rat whole blood. Because the ketone (or keto-compound; either pentoxifylline or 409) and its corresponding M-1 alcohol metabolite interconvert, levels of these components were measured after either the keto-compound was added to the blood or the M-1 was added. In other words, in some tests the keto-compound was the starting test compound and in other tests an M-1 metabolite was the starting test compound.
Fresh rat whole blood was obtained from ViviSource Laboratories, Waltham, Mass. Stock solutions (7.5 millimolar (mM)) of test compounds were prepared in dimethyl sulfoxide (DMSO). The 7.5 mM stock solutions were diluted to 500 micromolar (μM) in acetonitrile (ACN). To 990 microliters (μL) of blood pre-warmed to 37° C. for 7 minutes was added 10 μl, of 500 μM test compound to a final concentration of 5 μM. The test compounds were pentoxifylline, (S)-M1 metabolite of pentoxifylline, (R)-M1 metabolite of pentoxifylline, Compound 409, Compound 435(S), and Compound 435(R). The latter two test compounds are deuterated (S)-M1 and (R)-M1 metabolites, respectively, of Compound 409. The reaction mixture was incubated at 37° C. Aliquots (50 μL) were removed at 0 min, 5 min, 15 min, 30 min, 1 hour and 2 hours following the addition of test compound and added to 96-well plates containing 150 μL of ice cold acetonitrile with an internal standard to stop the reaction. The plates were stored at −20° C. for 20 minutes after which 100 μL of 50% acetonitrile/water was added to the wells of the plate prior to centrifugation to pellet precipitated proteins. A 200-μL aliquot of each supernatant was transferred to another 96-well plate and analyzed by LC-MS/MS using an Applied Bio-systems API 4000 mass spectrometer for amounts of the administered compound and its specific metabolite listed in Table 11 below.
The results of this study are depicted in FIGS. 2 and 3.

Where [5] appears, read: female chimp, read-out: AUC0-∞ Female.
Setting [6] is: male chimp, read-out: AUC0-∞ Male.
Setting [7] is: female, plasma, po, 65 mg, Table 17 i): female chimp, 435(S) and 121(S), read-out: AUC0-12 Female.
Where [8] appears, read: female, plasma, po, 65 mg, Table 17 ii): female chimp, 435(S) and 137(S), read-out: AUC0-12 Female.
Setting [9] is: female, plasma, po, 65 mg, Table 17 iii): female chimp, 435(S) and 421(S), read-out: AUC0-12 Female.
The mark [10] stands for this setting: female, plasma, po, 65 mg, Table 17 iv): female chimp, 435(S) and 437(S), read-out: AUC0-12 Female.
Setting [11] is: male, plasma, po, 65 mg, Table 17 i): male chimp, 435(S) and 121(S), read-out: AUC0-12 Male.
Where [12] appears, read: male, plasma, po, 65 mg, Table 17 ii): male chimp, 435(S) and 137(S), read-out: AUC0-12 Male.
Setting [13] is: male, plasma, po, 65 mg, Table 17 iii): male chimp, 435(S) and 421(S), read-out: AUC0-12 Male.
The mark [14] stands for this setting: male, plasma, po, 65 mg, Table 17 iv): male chimp, 435(S) and 437(S), read-out: AUC0-12 Male.

Where two headings read alike, the source gives them in different places.

On to `[2H]c1nc2c(c(=O)n(CCCC(=O)O)c(=O)n2C)n1C([2H])([2H])[2H]` [Deuterated M5 (M5a)], for which the AUC(0-inf) in series [1] (setting [5]) was 632 ng·h/mL; in series [1] (setting [6]) it was 428 ng·h/mL. Also, the “% Difference in AUC0-∞ Female (deuterated vs nondeuterated species)” value in series [1] (female chimp) was −60%. For the same compound, the “% Difference in AUC0-∞ Male (deuterated vs nondeuterated species)” value in series [1] (male chimp) is recorded as −65%. Further, the AUC(0-t) in series [2] (setting [7]) is 670 ng·h/mL; in series [2] (setting [8]), 754 ng·h/mL; in series [2] (setting [9]), 376 ng·h/mL; in series [2] (setting [10]), 306 ng·h/mL; in series [2] (setting [11]) it was 585 ng·h/mL; in series [2] (setting [12]), 719 ng·h/mL. Besides, the AUC(0-t) was 500 ng·h/mL in series [2] (setting [13]) and 562 ng·h/mL in series [2] (setting [14]).
In the case of `C[C@H](O)CCCCn1c(=O)c2c(ncn2C)n(C)c1=O` [(S)-M1, reference compound], the “Keto-compound (pentoxifylline or Compound 409) formed from M-1 alcohol” value is on record as “significant amount of pentoxifylline present” in series [3] (human liver microsomes 2.0 mg/mL, 5 μM, NADPH, FIG. 5 columns C and D); “appreciable amount of pentoxifylline present” in series [4]. The “More pentoxifylline produced from (S)-M1 than Compound 409 produced from Compound 435 (S)” value in series [3] (human liver microsomes) was “Approximately 30%”.
For `[2H]c1nc2c(c(=O)n(CCCC([2H])([2H])[C@@]([2H])(O)C([2H])([2H])[2H])c(=O)n2C)n1C([2H])([2H])[2H]` [Compound 435(S), (S)-8-d1-1-(4,4,5,6,6,6-d6-5-Hydroxyhexyl)-3-methyl-7-(methyl-d3)-1H-purine-2,6(3H,7H)-dione], the AUC(0-inf) was 1210 ng·h/mL in series [1] (setting [5]) and 2520 ng·h/mL in series [1] (setting [6]). In addition, the “% Difference in AUC0-∞ Female (deuterated vs nondeuterated species)” value in series [1] (female chimp) is “+84%”. In addition, the “% Difference in AUC0-∞ Male (deuterated vs nondeuterated species)” value in series [1] (male chimp) was “+61%”. The AUC(0-t) turned out to be 133 ng·h/mL in series [2] (setting [7]); 243 ng·h/mL in series [2] (setting [8]); 947 ng·h/mL in series [2] (setting [9]); 1140 ng·h/mL in series [2] (setting [10]); 354 ng·h/mL in series [2] (setting [11]); 100 ng·h/mL in series [2] (setting [12]). Further, the AUC(0-t) in series [2] (setting [13]) was 881 ng·h/mL; in series [2] (setting [14]), 686 ng·h/mL. Further, the “Keto-compound (pentoxifylline or Compound 409) formed from M-1 alcohol” value in series [4] is listed as “not detected”.
